ChEMBL document CHEMBL2203237, “Synthesis of C3-arylated-3-deazauridine derivatives with potent anti-HSV-1 activities” (Bioorg Med Chem Lett, 2012)
Activity calls are given as the source filed them. The calls are words filed in the database; no cut-off is given here.

Columns and labels:
[1] = Cytotoxicity against african green monkey Vero cells after 3 days by neutral red dye method; assay type: cell-based; conditions: chlorocebus sabaeus
Human alphaherpesvirus 1 [2] = test: Antiviral activity against Herpes simplex virus type 1 infected in Vero cells at 0.01 ID50/cells assessed as protection against virus-induced cytopathic effect after 3 days by neutral red dye method; assay type: functional, organism-based; conditions: Human alphaherpesvirus 1, Vero, 72 h
Human alphaherpesvirus 1 [3] = test: Antiviral activity against Herpes simplex virus type 1 infected in Vero cells at 0.001 ID50/cells assessed as destruction of cell layer after 3 days by neutral red dye method; assay type: functional, organism-based
Human alphaherpesvirus 1 [4] = test: Antiviral activity against Herpes simplex virus type 1 infected in Vero cells at 0.001 ID50/cells assessed as protection against virus-induced cytopathic effect after 3 days by neutral red dye method; assay type: functional, organism-based; conditions: Human alphaherpesvirus 1, Vero, 72 h
Human alphaherpesvirus 1 [5] = test: Antiviral activity against Herpes simplex virus type 1 infected in Vero cells at 0.001 ID50/cells assessed as change in cell morphology after 3 days by neutral red dye method; assay type: functional, organism-based
Human alphaherpesvirus 1 [6] = test: Ratio of acyclovir EC50 to compound EC50 for Herpes simplex virus type 1; assay type: functional
Human alphaherpesvirus 1 [7] = test: Antiviral activity against Herpes simplex virus type 1 infected in Vero cells at 0.001 ID50/cells assessed as protection against virus-induced cytopathic effect at 200 ug/ml after 3 days by neutral red dye method relative to control; assay type: functional

| Compound | CC50 at 72 h [1] [µM] | EC50 (Human alphaherpesvirus 1 [2]) [µM] | Activity (Human alphaherpesvirus 1 [3]) | EC50 (Human alphaherpesvirus 1 [4]) [µM] | Activity (Human alphaherpesvirus 1 [5]) | ratio (Human alphaherpesvirus 1 [6]) | Activity (Human alphaherpesvirus 1 [7]) [%] |
| --- | --- | --- | --- | --- | --- | --- | --- |
| COc1c(C)cc(-c2c(O)ccn([C@@H]3O[C@H](COC(C)=O)[C@@H](OC(C)=O)[C@H]3OC(C)=O)c2=O)cc1C | > 200 | > 100 |  |  |  |  |  |
| COc1ccc(-c2cn([C@@H]3O[C@H](CO)[C@@H](O)[C@H]3O)c(=O)cc2O)cc1 | > 200 | > 100 |  |  |  |  |  |
| CC(=O)OC[C@H]1O[C@@H](n2ccc(O)c(CCc3ccccc3)c2=O)[C@H](OC(C)=O)[C@@H]1OC(C)=O | > 400 |  | Active | > 100 | Active |  |  |
| CC(=O)OC[C@H]1O[C@@H](n2ccc(O)c(-c3ccc(C(C)(C)C)cc3)c2=O)[C@H](OC(C)=O)[C@@H]1OC(C)=O | > 200 | > 100 |  |  |  |  |  |
| COc1c(C)cc(-c2c(O)ccn([C@@H]3O[C@H](CO)[C@@H](O)[C@H]3O)c2=O)cc1C | > 200 | > 100 |  |  |  |  |  |
| CC(=O)OC[C@H]1O[C@@H](n2ccc(O)c(-c3ccc(C)cc3)c2=O)[C@H](OC(C)=O)[C@@H]1OC(C)=O | > 400 |  | Active | > 100 | Active |  |  |
| CC(=O)OC[C@H]1O[C@@H](n2ccc(O)c(-c3ccc(-c4ccccc4)cc3)c2=O)[C@H](OC(C)=O)[C@@H]1OC(C)=O | > 200 | 33 |  |  |  | 67 |  |
| O=c1c(-c2ccc3c(c2)OCO3)c(O)ccn1[C@@H]1O[C@H](CO)[C@@H](O)[C@H]1O | > 400 |  | Active | > 100 | Active |  |  |
| COc1ccc(-c2c(O)ccn([C@@H]3O[C@H](CO)[C@@H](O)[C@H]3O)c2=O)cc1 | > 400 | > 100 | Active | 20 | Active | 3.8 | 82 |
| CC(=O)OC[C@H]1O[C@@H](n2ccc(O)c(-c3ccccc3)c2=O)[C@H](OC(C)=O)[C@@H]1OC(C)=O | > 400 |  | Active | > 100 | Active |  |  |
| O=c1cc(O)c(-c2ccccc2)cn1[C@@H]1O[C@H](CO)[C@@H](O)[C@H]1O | > 200 | > 100 |  |  |  |  |  |
| CC(=O)OC[C@H]1O[C@@H](n2ccc(O)c(-c3ccc4c(c3)OCO4)c2=O)[C@H](OC(C)=O)[C@@H]1OC(C)=O | > 400 |  | Active | > 100 | Active |  |  |
| O=c1c(-c2ccc(-c3ccccc3)cc2)c(O)ccn1[C@@H]1O[C@H](CO)[C@@H](O)[C@H]1O | > 200 | > 100 |  |  |  |  |  |
| CC(C)(C)c1ccc(-c2c(O)ccn([C@@H]3O[C@H](CO)[C@@H](O)[C@H]3O)c2=O)cc1 | > 200 | > 100 |  |  |  |  |  |
| Cc1ccc(-c2c(O)ccn([C@@H]3O[C@H](CO)[C@@H](O)[C@H]3O)c2=O)cc1 | > 400 |  | Active | > 100 | Active |  |  |
| COc1cc(-c2c(O)ccn([C@@H]3O[C@H](CO)[C@@H](O)[C@H]3O)c2=O)cc(OC)c1OC | > 200 | > 100 |  |  |  |  |  |
| O=c1c(CCc2ccccc2)c(O)ccn1[C@@H]1O[C@H](CO)[C@@H](O)[C@H]1O | > 400 |  | Active | > 100 | Active |  |  |
| COc1ccc(-c2c(O)ccn([C@@H]3O[C@H](COC(C)=O)[C@@H](OC(C)=O)[C@H]3OC(C)=O)c2=O)cc1 | > 200 | > 100 | Active | 10.5 | Active | 7.2 | 85 |

| Compound | CC50 at 72 h [1] [µM] | EC50 (Human alphaherpesvirus 1 [2]) [µM] | Activity (Human alphaherpesvirus 1 [3]) | EC50 (Human alphaherpesvirus 1 [4]) [µM] | Activity (Human alphaherpesvirus 1 [5]) | ratio (Human alphaherpesvirus 1 [6]) | Activity (Human alphaherpesvirus 1 [7]) [%] |
| --- | --- | --- | --- | --- | --- | --- | --- |
| COc1ccc(-c2c(O)ccn([C@@H]3O[C@H](CO)[C@@H](O)[C@H]3O)c2=O)cc1OC | > 400 |  | Active | > 100 | Active |  |  |
| CCOc1ccc(-c2c(O)c(-c3ccccc3)cn([C@@H]3O[C@H](CO)[C@@H](O)[C@H]3O)c2=O)cc1 | > 200 | > 100 |  |  |  |  |  |
| COc1cc(-c2c(O)ccn([C@@H]3O[C@H](COC(C)=O)[C@@H](OC(C)=O)[C@H]3OC(C)=O)c2=O)cc(OC)c1OC | > 200 | > 100 |  |  |  |  |  |
| CCOc1ccc(-c2c(O)ccn([C@@H]3O[C@H](COC(C)=O)[C@@H](OC(C)=O)[C@H]3OC(C)=O)c2=O)cc1 | > 200 | > 100 |  |  |  |  |  |
| CC(=O)OC[C@H]1O[C@@H](n2cc(-c3ccccc3)c(O)cc2=O)[C@H](OC(C)=O)[C@@H]1OC(C)=O | > 200 | > 100 |  |  |  |  |  |
| CC(=O)OC[C@H]1O[C@@H](n2ccc(O)c(-c3ccc(C4CCCCC4)cc3)c2=O)[C@H](OC(C)=O)[C@@H]1OC(C)=O | > 200 | 49 |  |  |  | 45 |  |
| O=c1c(-c2ccccc2)c(O)ccn1[C@@H]1O[C@H](CO)[C@@H](O)[C@H]1O | > 400 |  | Active | > 100 | Active |  |  |
| COc1ccc(-c2c(O)ccn([C@@H]3O[C@H](COC(C)=O)[C@@H](OC(C)=O)[C@H]3OC(C)=O)c2=O)cc1OC | > 200 | > 100 | Active | 36.6 | Active | 2.1 | 75 |
| O=c1c(-c2ccc(C3CCCCC3)cc2)c(O)ccn1[C@@H]1O[C@H](CO)[C@@H](O)[C@H]1O | > 200 | > 100 |  |  |  |  |  |
| CCOc1ccc(-c2c(O)ccn([C@@H]3O[C@H](CO)[C@@H](O)[C@H]3O)c2=O)cc1 | > 200 | > 100 |  |  |  |  |  |
| CC(=O)OC[C@H]1O[C@@H](n2ccc(O)c(-c3ccc(OC(F)(F)F)cc3)c2=O)[C@H](OC(C)=O)[C@@H]1OC(C)=O | > 200 | > 100 |  |  |  |  |  |
| CC(=O)OC[C@H]1O[C@@H](n2ccc(O)c(-c3ccc(S(C)(=O)=O)cc3)c2=O)[C@H](OC(C)=O)[C@@H]1OC(C)=O | > 200 | > 100 |  |  |  |  |  |
| COc1ccc(-c2cn([C@@H]3O[C@H](COC(C)=O)[C@@H](OC(C)=O)[C@H]3OC(C)=O)c(=O)cc2O)cc1 | > 200 | > 100 |  |  |  |  |  |
| CCOc1ccc(-c2c(O)c(-c3ccccc3)cn([C@@H]3O[C@H](COC(C)=O)[C@@H](OC(C)=O)[C@H]3OC(C)=O)c2=O)cc1 | > 200 | > 100 |  |  |  |  |  |
| CC(=O)OC[C@H]1O[C@@H](n2c(=O)cc(O)c3ccccc32)[C@H](OC(C)=O)[C@@H]1OC(C)=O | > 200 | > 100 |  |  |  |  |  |
| Nc1nc2c(ncn2COCCO)c(=O)[nH]1 [ACYCLOVIR] | > 200 | 22 |  | 0.76 |  |  |  |
| O=c1cc(O)c2ccccc2n1[C@@H]1O[C@H](CO)[C@@H](O)[C@H]1O | > 200 | > 100 |  |  |  |  |  |
